Results from patent US8785459B2, “Quinazoline compounds as kinase inhibitors” (Development Center for Biotechnology, priority 2011, dated 2014).

Key:
B-Raf = B-Raf (Homo sapiens (Human), UniProt P15056); assay: Raf kinase assay (B-Raf), [33P] incorporation into MEK1(K97R); type: biochemical; details: for inhibition at 1 µM / B-Raf inhibition at 1.0 μM: 1.0 μM compound; for inhibition at 1 µM: read-out: B-Raf inhibition at 1.0 μM
Method in brief: (§1)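 [33P] transfer to kinase-dead MEK1(K97R) substrate (500 ng) measured after 30 min at 30 °C in Tris pH 7.5 buffer containing 8 μM ATP. Enzyme inputs were 2 ng for C-Raf and 5 ng for B-Raf and B-Raf V600E. Duplicate 3-fold serial dilutions gave the half-maximal inhibitory concentration.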

B-Raf (V600E) = B-Raf (V600E) (Homo sapiens (Human), UniProt P15056, V600E); assay: Raf kinase assay (B-Raf (V600E)), [33P] incorporation into MEK1(K97R); type: biochemical
Method in brief: as §1

C-Raf = C-Raf (Homo sapiens (Human), UniProt P04049); assay: Raf kinase assay (C-Raf), [33P] incorporation into MEK1(K97R); type: biochemical
Method in brief: as §1

A549 = assay: Anti-proliferative activity, CellTiter-96 assay, A549; type: cell-based; details: Homo sapiens, A549 cells, 72 hours incubation
Description: (§2) Antiproliferative Activity
(§3) The anti-proliferative activities of the compounds with formula (I) and formula (II) with respect to four human cancer cell lines (A549, A375, MDA-MB-231, and COLO205) were measured using the CellTiter™-96 assay kit (Promega) following the manufacturer's instructions. In brief, the cells were maintained in DMEM containing 10% FCS and incubated at 37° C. in 5% CO2 atmosphere. Cells were plated at a density of 2000 cells/well of a 96-well plate for 24 h, then treated with different concentrations of the compounds, and incubated for another 72 hours. At the end of the incubation, CellTiter™-96 Aqueous One Solution Reagent (Promega) was added and incubated for another 4.0 hours. Cell viability was determined by measuring absorbance at 490 nm using EMax® microplate reader (Molecular Devices). Data were processed and analyzed using GraphPad Prism version 4.

A375 = assay: Anti-proliferative activity, CellTiter-96 assay, A375; type: cell-based; details: Homo sapiens, A-375, A375 cells, 72 hours incubation
Description: as §2, §3

MDA-MB-231 = assay: Anti-proliferative activity, CellTiter-96 assay, MDA-MB-231; type: cell-based; details: Homo sapiens, MDA-MB-231 cells, 72 hours incubation
Description: as §2, §3

COLO205 = assay: Anti-proliferative activity, CellTiter-96 assay, COLO205; type: cell-based; details: Homo sapiens, COLO 205, COLO205 cells, 72 hours incubation
Description: as §2, §3

Sequence of B-Raf (P15056 whole entry): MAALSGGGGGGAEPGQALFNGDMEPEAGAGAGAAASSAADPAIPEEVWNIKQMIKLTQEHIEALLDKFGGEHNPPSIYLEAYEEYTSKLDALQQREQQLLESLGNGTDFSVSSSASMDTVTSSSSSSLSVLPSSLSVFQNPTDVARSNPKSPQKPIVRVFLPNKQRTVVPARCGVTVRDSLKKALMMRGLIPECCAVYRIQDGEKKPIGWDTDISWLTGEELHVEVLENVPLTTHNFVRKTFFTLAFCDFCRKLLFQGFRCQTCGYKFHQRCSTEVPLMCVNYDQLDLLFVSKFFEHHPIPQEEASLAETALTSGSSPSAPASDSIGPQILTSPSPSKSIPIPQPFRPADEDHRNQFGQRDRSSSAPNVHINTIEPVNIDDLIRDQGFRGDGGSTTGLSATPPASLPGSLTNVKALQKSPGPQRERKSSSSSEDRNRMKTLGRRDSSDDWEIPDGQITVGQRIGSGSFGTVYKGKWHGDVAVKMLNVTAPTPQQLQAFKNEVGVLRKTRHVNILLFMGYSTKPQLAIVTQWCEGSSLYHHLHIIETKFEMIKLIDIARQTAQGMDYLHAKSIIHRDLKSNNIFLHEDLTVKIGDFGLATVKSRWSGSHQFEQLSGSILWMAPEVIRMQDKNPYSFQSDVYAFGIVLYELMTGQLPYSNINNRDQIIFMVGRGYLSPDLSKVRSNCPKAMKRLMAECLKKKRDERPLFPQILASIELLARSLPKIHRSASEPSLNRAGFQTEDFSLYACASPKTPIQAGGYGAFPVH
Sequence of C-Raf (P04049 whole entry): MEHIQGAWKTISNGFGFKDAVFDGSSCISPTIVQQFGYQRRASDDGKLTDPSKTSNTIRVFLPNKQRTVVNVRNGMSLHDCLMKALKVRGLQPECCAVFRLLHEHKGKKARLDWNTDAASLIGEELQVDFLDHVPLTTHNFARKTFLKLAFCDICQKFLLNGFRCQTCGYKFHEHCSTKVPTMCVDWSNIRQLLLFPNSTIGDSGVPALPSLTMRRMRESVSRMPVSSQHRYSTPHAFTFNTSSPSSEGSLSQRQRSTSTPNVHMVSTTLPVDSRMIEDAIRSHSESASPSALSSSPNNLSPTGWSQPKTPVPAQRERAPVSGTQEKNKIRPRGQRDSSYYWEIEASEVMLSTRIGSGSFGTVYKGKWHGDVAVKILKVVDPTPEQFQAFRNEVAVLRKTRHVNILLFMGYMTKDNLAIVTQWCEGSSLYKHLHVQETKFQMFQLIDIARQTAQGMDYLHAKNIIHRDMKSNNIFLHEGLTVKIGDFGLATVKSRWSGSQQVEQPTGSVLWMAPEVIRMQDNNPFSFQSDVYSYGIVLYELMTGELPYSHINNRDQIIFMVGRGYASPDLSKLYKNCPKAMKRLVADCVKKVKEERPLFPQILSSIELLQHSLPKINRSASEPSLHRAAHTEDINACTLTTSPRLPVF
Sequence of B-Raf (V600E) (P15056 whole entry V600E): as the sequence (P15056 whole entry) above, with V600E counted along it

IC50 (B-Raf) [nM]	IC50 (B-Raf (V600E)) [nM]	IC50 (C-Raf) [nM]	IC50 (A549) [nM]	IC50 (A375) [nM]	IC50 (MDA-MB-231) [nM]	IC50 (COLO205) [nM]	inhibition at 1 µM (B-Raf) [%]	B-Raf inhibition at 1.0 μM (B-Raf) [%]	Structure (SMILES)
900	760	2150	1300 ± 300	2300 ± 100	1800 ± 200	8500 ± 2300			COc1cc(-c2ccc3ncnc(Nc4ccccc4)c3c2)ccc1O [Compound 1, 2-methoxy-4-(4-(phenylamino)quinazolin-6-yl)phenol]
1010	1090	2160	> 50000	> 50000	> 50000	31600 ± 2500	52.7		COc1cc(-c2ccc3ncnc(Nc4ccc(F)c(Cl)c4)c3c2)ccc1O [Compound 14, 4-(4-(3-chloro-4-fluorophenylamino)quinazolin-6-yl)-2-methoxyphenol]
1150	1020	1450	2500 ± 600	2700 ± 200	4100 ± 300	11800 ± 4600	44.4		COc1cc(-c2ccc3ncnc(Nc4ccc(F)cc4)c3c2)ccc1O [Compound 15, 4-(4-(4-fluorophenylamino)quinazolin-6-yl)-2-methoxyphenol]
87	94	781	> 50000	> 50000	> 50000	> 50000	93.8		COc1cc(-c2cc3c(Nc4cccc(O)c4)ncnc3cc2OC)ccc1O [Compound 31, 4-(4-(3-hydroxyphenylamino)-7-methoxyquinazolin-6-yl)-2-methoxyphenol]
40.4	47.3	245	2200 ± 400	8700 ± 2700	> 50000	24700 ± 2400	94.3		COc1cc(-c2cc3c(Nc4cc(O)ccc4Cl)ncnc3cc2OC)ccc1O [Compound 43, 4-(4-(2-chloro-5-hydroxyphenylamino)-7-methoxyquinazolin-6-yl)-2-methoxyphenol]
55.3	71.6	790	> 50000	> 50000	> 50000	> 50000	90.3		COc1cc2ncnc(Nc3cccc(O)c3)c2cc1-c1ccc(O)cc1 [Compound 49, 3-(6-(4-hydroxyphenyl)-7-methoxyquinazolin-4-ylamino)phenol]
267	278	735					76.6		COc1ccc(-c2ccc3nccc(Nc4cccc5[nH]ncc45)c3c2)cc1Cl [Compound 115, 6-(3-chloro-4-methoxyphenyl)-N-(1H-indazol-4-yl)quinolin-4-amine]
548	525	988					68.2		COc1cc(-c2ccc3ncnc(Nc4cccc(OC(F)F)c4)c3c2)ccc1O [Compound 118, 4-(4-(3-(difluoromethoxy)phenylamino)quinazolin-6-yl)-2-methoxyphenol]
543	633	1440					67.1		COc1cc(-c2ccc3ncnc(Nc4ccccc4F)c3c2)ccc1O [Compound 119, 4-(4-(2-fluorophenylamino)quinazolin-6-yl)-2-methoxyphenol]
227	284	753					76.2		Nc1ccc(-c2ccc3nccc(Nc4cccc5[nH]ncc45)c3c2)cc1 [Compound 121, 6-(4-aminophenyl)-N-(1H-indazol-4-yl)quinolin-4-amine]
259	264	439					77.5		CCCS(=O)(=O)Nc1cccc(-c2ccc3nccc(Nc4cccc5[nH]ncc45)c3c2)c1 [Compound 122, N-(3-(4-(1H-indazol-4-ylamino)quinolin-6-yl)phenyl)propane-1-sulfonamide]
231	263	688					80.3		COc1cccc(-c2ccc3nccc(Nc4cccc5[nH]ncc45)c3c2)c1 [Compound 123, N-(1H-indazol-4-yl)-6-(3-methoxyphenyl)quinolin-4-amine]
285	423	1030					71.2		Fc1ccccc1-c1ccc2nccc(Nc3cccc4[nH]ncc34)c2c1 [Compound 125, 6-(2-fluorophenyl)-N-(1H-indazol-4-yl)quinolin-4-amine]
888	1090	8390					53.5		COc1cc(-c2ccc3ncnc(Nc4cccc5[nH]c(=O)[nH]c45)c3c2)ccc1O [Compound 127, 4-(6-(4-hydroxy-3-methoxyphenyl)quinazolin-4-ylamino)-1H-benzo[d]imidazol-2(3H)-one]
4130	4280	12800					18.5		COc1cc(-c2ccc3nccc(Nc4cc(NS(C)(=O)=O)ccc4F)c3c2)ccc1O [Compound 128, N-(4-fluoro-3-(6-(4-hydroxy-3-methoxyphenyl)quinolin-4-ylamino)phenyl)methanesulfonamide]
240	270	1060					77.5		COc1cc(-c2ccc3ncnc(Nc4cc(NS(C)(=O)=O)ccc4F)c3c2)ccc1O [Compound 129, N-(4-fluoro-3-(6-(4-hydroxy-3-methoxyphenyl)quinazolin-4-ylamino)phenyl)methanesulfonamide]
451	547	4210					80.1		Oc1ccc(-c2ccc3ncnc(Nc4cccc5[nH]ncc45)c3c2)cc1 [Compound 131, 4-(4-(1H-indazol-4-ylamino)quinazolin-6-yl)phenol]
760	706	4420					57.7		COc1cc(-c2ccc3ncnc(Nc4c(F)cccc4F)c3c2)ccc1O [Compound 134, 4-(4-(2,6-difluorophenylamino)quinazolin-6-yl)-2-methoxyphenol]
350	268	1130						84.9	COc1cc(-c2ccc3ncnc(Nc4c(F)ccc5[nH]ncc45)c3c2)ccc1O [Compound 136, 4-(4-(5-fluoro-1H-indazol-4-ylamino)quinazolin-6-yl)-2-methoxyphenol]
227	357	1960					75.4		Oc1cccc(-c2ccc3ncnc(Nc4cccc5[nH]ncc45)c3c2)c1 [Compound 143, 3-(4-(1H-indazol-4-ylamino)quinazolin-6-yl)phenol]
309	472	3900					62.6		COc1cccc(-c2ccc3ncnc(Nc4cccc5[nH]ncc45)c3c2)c1 [Compound 144, N-(1H-indazol-4-yl)-6-(3-methoxyphenyl)quinazolin-4-amine]
614	426	3700						64.3	COc1cccc(-c2ccc3nccc(Nc4cccc5[nH]ncc45)c3c2)c1 [Compound 146, N-(1H-indazol-4-yl)-6-(3-methoxyphenyl)quinolin-4-amine]
680	848	2950					50.7		COc1ccc(-c2ccc3ncnc(Nc4cccc5[nH]ncc45)c3c2)cc1 [Compound 147, N-(1H-indazol-4-yl)-6-(4-methoxyphenyl)quinazolin-4-amine]
230	359	584					68.9		Oc1cccc(-c2ccc3nccc(Nc4cccc5[nH]ncc45)c3c2)c1 [Compound 148, 3-(4-(1H-indazol-4-ylamino)quinolin-6-yl)phenol]
131	198	2330	> 50000	> 50000	> 50000		86.4		COc1ccc(-c2ccc3ncnc(Oc4cccc(O)c4)c3c2)cc1 [Compound 152, 3-(6-(4-methoxyphenyl)quinazolin-4-yloxy)phenol]
188	236	723	7700 ± 600	6400 ± 900	7800 ± 300		84.4		c1cc(Nc2ncnc3ccc(-c4ccc5[nH]ncc5c4)cc23)c2cn[nH]c2c1 [Compound 153, N-(1H-indazol-4-yl)-6-(1H-indazol-5-yl)quinazolin-4-amine]
151	216	3510					83		Oc1c(F)ccc(Nc2ncnc3ccc(-c4ccc(Cl)cc4)cc23)c1F [Compound 164, 3-(6-(4-chlorophenyl)quinazolin-4-ylamino)-2,6-difluorophenol]
